Results reported in article PMC8780828 (Viruses, 2021).
“Also recorded” adds a separate entry of the source. Read-outs that look alike come from different tables or passages of the source.

Columns and labels:
[1] = test system: pseudovirus NL4-3ΔEnv-NanoLuc/SARS-CoV-2; experiment: organism not typed; type: cell-based; conditions: 293T/ACE2
[2] = test system: pseudovirus NL4-3ΔEnv-NanoLuc/SARS-CoV-2; experiment: SARS-CoV-2 pseudovirus assay with pre-treated 293T/ACE2 cells; type: cell-based; conditions: 293T/ACE2 cells pre-treated with compound 30 min before infection
[3] = test system: pseudovirus NL4-3ΔEnv-NanoLuc/MERS-CoV; experiment: microbe, parasite or virus in culture; type: cell-based; conditions: Middle East respiratory syndrome-related coronavirus, Huh-7; n=3; read-out: IC50
[4] = test system: pseudovirus NL4-3ΔEnv-NanoLuc/SARS-CoV; experiment: microbe, parasite or virus in culture; type: cell-based; conditions: Severe acute respiratory syndrome coronavirus, 293T/ACE2; n=3
[5] = test system: pseudovirus NL4-3ΔEnv-NanoLuc/MERS-CoV; experiment: microbe, parasite or virus in culture; type: cell-based; conditions: Middle East respiratory syndrome-related coronavirus, MRC5; n=3; read-out: IC50
[6] = test system: MERS-CoV pseudovirus; experiment: microbe, parasite or virus in culture; type: cell-based; conditions: Middle East respiratory syndrome-related coronavirus
[7] = test system: pseudovirus NL4-3ΔEnv-NanoLuc/SARS-CoV; experiment: microbe, parasite or virus in culture; type: cell-based; conditions: Severe acute respiratory syndrome coronavirus, A549-ACE2; n=3; read-out: IC50
[8] = test system: control pseudovirus NL4-3.Luc.R-E-/A-MLV; experiment: Control pseudovirus A-MLV assay in 293T/ACE2 cells; type: cell-based, amphotropic murine leukemia virus (A-MLV); conditions: NL43, 293T/ACE2
[9] = test system: SARS-CoV-2 (US_WA-1/2020); type: cell-based
[10] = test system: NL4-3ΔEnv-NanoLuc/SARS-CoV-2; experiment: organism not typed; type: cell-based
[11] = test system: pseudovirus NL4-3ΔEnv-NanoLuc/SARS-CoV-2; experiment: organism not typed; type: cell-based; conditions: A549-ACE2; n=3
[12] = test system: pseudovirus NL4-3ΔEnv-NanoLuc/SARS-CoV; experiment: microbe, parasite or virus in culture; type: cell-based; conditions: Severe acute respiratory syndrome coronavirus, HT-1080; n=3; read-out: IC50
[13] = test system: pseudovirus NL4-3ΔEnv-NanoLuc/SARS-CoV-2; experiment: organism not typed; type: cell-based; conditions: HT-1080; n=3
[14] = in vitro; conditions: human
[15] = in vitro; conditions: human; remark: listed apart in the source
[16] = test system: Trypsin; type: biochemical
[17] = biological target: β-lactamase; type: biochemical
[18] = biological target: malate dehydrogenase (MDH); type: biochemical
[19] = in vitro; conditions: both, human, microsomes, pH 7.4
[20] = test system: SARS-CoV-2; conditions: A549-hACE2 cells; NLuc-based assay; cited from earlier work
[21] = test system: SARS-CoV-2; conditions: Vero E6 cells; NLuc-based assay; cited from earlier work
[22] = biological target: FLuc (Photinus pyralis, UniProt P08659); type: biochemical
Sequence of FLuc (P08659 whole entry): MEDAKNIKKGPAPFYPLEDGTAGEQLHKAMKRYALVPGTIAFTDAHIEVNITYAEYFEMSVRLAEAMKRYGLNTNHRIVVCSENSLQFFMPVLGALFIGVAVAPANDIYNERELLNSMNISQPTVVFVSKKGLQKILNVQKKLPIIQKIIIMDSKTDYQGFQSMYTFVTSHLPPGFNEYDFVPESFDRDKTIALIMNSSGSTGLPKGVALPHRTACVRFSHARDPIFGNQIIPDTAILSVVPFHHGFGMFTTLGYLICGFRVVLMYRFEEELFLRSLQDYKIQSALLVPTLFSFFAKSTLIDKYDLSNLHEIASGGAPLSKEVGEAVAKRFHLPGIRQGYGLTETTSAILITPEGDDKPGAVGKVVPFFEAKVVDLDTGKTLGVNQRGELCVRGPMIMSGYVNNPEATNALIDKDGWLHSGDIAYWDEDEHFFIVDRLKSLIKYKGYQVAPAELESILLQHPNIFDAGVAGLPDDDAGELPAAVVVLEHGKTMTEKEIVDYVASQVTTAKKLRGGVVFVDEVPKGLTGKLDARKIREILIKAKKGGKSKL

Structure (SMILES) | IC50 [1] | IC50 [13] | antiviral activity against SARS-CoV-2 pseudovirus [10] | CC50 [14] | CC50 [15] | also measured
Cc1c(C(=O)O)cncc1-c1ccc(/C=C2\SC(=S)N(CCc3ccccc3)C2=O)o1 [NBCoV9] | 342 ± 46 nM | 365 ± 73 nM | – | – | – | IC50 [2]: > 2000 nM; IC50 [3]: 214 ± 23 nM; IC50 [4]: 217 ± 22 nM; IC50 [5]: 232 ± 17 nM; IC50 [6]: ~200 nM; IC50 [7]: 350 ± 15 nM; IC50 [8]: 1630 ± 118 nM; IC100 [9]: > 10 µM; IC100 (range of IC100 values detected in the three cell lines) [10]: 2 to 3 µM; IC50 [11]: 596 ± 42 nM; IC50 [12]: 246 ± 10 nM
O=C1C(=Cc2ccc(-c3ccc(Cl)cc3)o2)SC(=S)N1CCc1ccccc1 [NBCoV15, 5-((5-(4-chlorophenyl)furan-2-yl)methylene)-3-phenethyl-2-thioxothiazolidin-4-one] | > 2000 nM | > 2000 nM | virtually no inhibition; also recorded: no antiviral activity; also recorded: no antiviral potency | – | – | –
O=C1NC(=S)S/C1=C\c1ccc(-c2ccc(Cl)c(C(=O)O)c2)o1 [NBCoV17] | > 2000 nM | > 2000 nM | no antiviral activity; also recorded: did not show any inhibitory activities | > 100000 nM | > 100000 nM | –
C#CCN1C(=O)/C(=C/c2ccc(-c3ccc(Cl)c(C(=O)O)c3)o2)SC1=S [NBCoV28] | > 2000 nM | > 2000 nM | no antiviral activity; also recorded: did not show any inhibitory activities | > 100000 nM | 92000 ± 3000 nM | –
O=C1NC(=S)S/C1=C\c1ccc(-c2ccc(C(=O)O)cc2)o1 [NBCoV34] | > 2000 nM | > 2000 nM | no antiviral activity; also recorded: no inhibitory activity | 83000 ± 4000 nM | ~100000 nM | IC50 [16]: > 2000 nM; IC50 [17]: > 2000 nM; IC50 [18]: > 2000 nM
C[C@]12CC[C@H]3[C@@H](CCC4=CC(=O)CC[C@@]43C)[C@@H]1CC[C@@H]2O [Testosterone, reference compound] | – | – | – | – | – | half-life [19]: 11.3 min; microsomal CLint [19]: 122 µL/min/mg
CCC(CC)COC(=O)[C@H](C)N[P@](=O)(OC[C@H]1O[C@@](C#N)(c2ccc3c(N)ncnn23)[C@H](O)[C@@H]1O)Oc1ccccc1 [remdesivir] | – | – | – | – | – | antiviral potency [20]: 115 nM; antiviral potency [21]: 1280 nM
Oc1ccc(/C=C/c2cc(O)cc(O)c2)cc1 [resveratrol] | – | – | – | – | – | effect on FLuc activity [22]: completely blocked
